From the supplement of paper PMC7394473

How the values were obtained:
Settings in all cases: 72 h
U2OS [1] = assay: FV IC50 (concentration giving fractional viability 0.5); higher = less potent killing
Protocol: (§1)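 U2OS cells treated with full dose titrations of drug; live and dead cells counted by STACK microscopy (mKate2 nuclei, SYTOX Green) at 72 h, biological triplicates. GR and FV dose responses were fitted with 4-parameter logistic models (GR lower bound -1). GRADE (0-100) is the rescaled angle of a linear fit of FV versus GR at doses with GR >= 0, giving the percentage of the response due to cell death.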

U2OS [2] = assay: normalized growth rate inhibition value (GR) relative to untreated cells (GR value (dimensionless, 1 = untreated growth)); higher = less growth inhibition
Protocol: (§2)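 U2OS::Nuc-mKate2 cells seeded in 96-well plates and treated with eight- to ten-point half-log or log dilutions of drug in the presence of 50 nM SYTOX Green. Live (mKate2+) and dead (SYTOX+) cells were counted by IncuCyte STACK live-cell microscopy at 72 h; biological triplicates. GR is the normalised growth-rate inhibition value (Hafner 2016; 1 = untreated growth, <0 = population shrinking). FV is live/(live+dead) cells, not normalised.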

U2OS [3] = assay: drug GRADE (percent of response due to cell death) (% (0-100)); higher = more death-driven response
Protocol: as §1

U2OS [4] = assay: fractional viability (live cells / total cells); higher = less cell death
Protocol: as §2

U2OS [5] = assay: GR50 (concentration giving GR = 0.5)
Protocol: as §1

U2OS [6] = assay: GRmin (fitted minimal GR value at highest effect) (GR value (dimensionless)); higher = less efficacious
Protocol: as §1

CNc1ccc2oc(C[C@H]3O[C@@]4(CC[C@H]3C)O[C@H]([C@H](C)C(=O)c3ccc[nH]3)[C@H](C)C[C@H]4C)nc2c1C(=O)O
Settings	FV IC50 [µM]	GR50 [µM]	drug GRADE
U2OS [1]	8.33	–	–
U2OS [3]	–	–	23.9
U2OS [5]	–	1.69	–

Settings	fractional viability, U2OS [4]	normalized growth rate inhibition value, U2OS [2]
0.01 µM	0.982	1.02
0.0316 µM	0.983	1.01
0.1 µM	0.976	0.913
0.316 µM	0.97	0.846
1 µM	0.959	0.612
3.16 µM	0.848	0.31
10 µM	0.418	-0.171
31.6 µM	0.0921	-0.602

Cc1ccc(C(=O)N(CCCN)[C@@H](c2oc3cc(Cl)ccc3c(=O)c2Cc2ccccc2)C(C)C)cc1
Settings	FV IC50 [µM]	GRmin	drug GRADE
U2OS [1]	2.85	–	–
U2OS [3]	–	–	53.2
U2OS [6]	–	-0.9	–

Settings	fractional viability, U2OS [4]	normalized growth rate inhibition value, U2OS [2]
0.00316 µM	0.855	0.205
0.01 µM	0.758	-0.165
0.0316 µM	0.808	0.0886
0.1 µM	0.764	-0.222
0.316 µM	0.827	0.0837
1 µM	0.782	-0.166
3.16 µM	0.436	-0.182
10 µM	0.0037	-0.945
31.6 µM	0.000513	-0.883

CN(C)CC[C@H](CSc1ccccc1)Nc1ccc(S(=O)(=O)NC(=O)c2ccc(N3CCN(Cc4ccccc4-c4ccc(Cl)cc4)CC3)cc2)cc1[N+](=O)[O-] [ABT-737]
Settings	FV IC50 [µM]	GR50 [µM]	drug GRADE
U2OS [1]	6.86	–	–
U2OS [3]	–	–	65.6
U2OS [5]	–	2.13	–

Settings	fractional viability, U2OS [4]	normalized growth rate inhibition value, U2OS [2]
0.00100578 µM	0.986	0.92
0.00317827 µM	0.984	1.02
0.0100433 µM	0.983	1.02
0.0317369 µM	0.982	0.95
0.100289 µM	0.954	0.94
0.316912 µM	0.913	0.817
1.00144 µM	0.82	0.744
3.16456 µM	0.684	0.358
10 µM	0.407	-0.162

CC[C@@H]1C(=O)N(C)c2cnc(Nc3ccc(C(=O)NC4CCN(C)CC4)cc3OC)nc2N1C1CCCC1 [BI2536]
Settings	FV IC50 [µM]	drug GRADE
U2OS [1]	0.0275	–
U2OS [3]	–	20.9

Settings	fractional viability, U2OS [4]	normalized growth rate inhibition value, U2OS [2]
0.00316 µM	0.517	0.0188
0.01 µM	0.45	-0.371
0.0316 µM	0.485	-0.116
0.1 µM	0.413	-0.354
0.316 µM	0.388	-0.184
1 µM	0.323	-0.415
3.16 µM	0.168	-0.378
10 µM	0.0141	-0.876
31.6 µM	0.00423	-0.822

CC(C)n1nc(-c2ccc3oc(N)nc3c2)c2c(N)ncnc21 [INK-128]
Settings	fractional viability, U2OS [4]	normalized growth rate inhibition value, U2OS [2]
0.000318058 µM	0.987	0.831
0.00100506 µM	0.989	0.849
0.003176 µM	0.989	0.896
0.0100362 µM	0.987	0.726
0.0317143 µM	0.982	0.484
0.100217 µM	0.965	0.226
0.316686 µM	0.95	0.223
1.00073 µM	0.915	0.0973
3.1623 µM	0.855	-0.0193

Settings	GR50 [µM]	GRmin	drug GRADE
U2OS [3]	–	–	10.9
U2OS [5]	0.0318	–	–
U2OS [6]	–	0.0247	–

CO[C@@H]1C[C@@H](C[C@H]2CC[C@H](C)[C@H]([C@@H](C)C(=O)O)O2)O[C@]2(O[C@](C)([C@H]3CC[C@@](C)([C@@H]4O[C@@H]([C@H]5O[C@@](O)(CO)[C@H](C)C[C@@H]5C)C[C@@H]4C)O3)C[C@H]2C)[C@@H]1C [Nigericin]
Settings	fractional viability, U2OS [4]	normalized growth rate inhibition value, U2OS [2]
0.01 µM	0.963	0.857
0.0316 µM	0.957	0.78
0.1 µM	0.903	0.777
0.316 µM	0.829	0.484
1 µM	0.625	0.277
3.16 µM	0.661	0.287
10 µM	0.685	0.155
31.6 µM	0.449	-0.106

Settings	GR50 [µM]	GRmin	drug GRADE
U2OS [3]	–	–	57.3
U2OS [5]	0.436	–	–
U2OS [6]	–	-0.311	–

CC(=O)c1c(C)c2cnc(Nc3ccc(N4CCNCC4)cn3)nc2n(C2CCCC2)c1=O [Palbociclib]
Settings	fractional viability, U2OS [4]	normalized growth rate inhibition value, U2OS [2]
0.000317827 µM	0.992	1.08
0.00100433 µM	0.992	0.975
0.00317369 µM	0.99	0.904
0.0100289 µM	0.989	0.841
0.0316912 µM	0.989	0.721
0.100144 µM	0.984	0.769
0.316456 µM	0.988	0.639
1 µM	0.987	0.525
3.16 µM	0.972	0.398

Settings	GR50 [µM]	GRmin	drug GRADE
U2OS [3]	–	–	3.13
U2OS [5]	1.15	–	–
U2OS [6]	–	0.176	–
